≈ marks a conversion by molar mass, not a printed value.
Assays:
[1] = tested on: Cladosporium herbarum NCPF2564; experiment: Fungus panel screening, CLSI broth microdilution; format: cell-based
Experimental: Fungus panel screening was conducted by Eurofins Panlabs Inc. The MIC and MIC50 values of the test articles were determined following the guidelines of the CLSI: broth microdilution methods for yeast (CLSI M27-A2), (CLSI, 2002) and for filamentous fungi (CLSI M38-A), (CLSI, 2008).

[2] = tested on: TNFα; experiment: Serum TNFα in Aspergillus fumigatus infected, immunocompromised, neutropenic mice; format: in vivo, A/J mice; details: for TNFα in serum, % Inhibition / Conc of Biomarkers, TNFα in serum: therapeutic; for Conc of Biomarkers, TNFα in serum: mean ± SEM, N = 6
Experimental: Aspergillus fumigatus (ATCC 13073 [strain: NIH 5233], American Type Culture Collection, Manassas, Va., USA) was grown on Malt agar (Nissui Pharmaceutical, Tokyo, Japan) plates for 6-7 days at RT (24±1° C.). Spores were aseptically dislodged from the agar plates and suspended in sterile distilled water with 0.05% Tween 80 and 0.1% agar. On the day of infection, spore counts were assessed by haemocytometer and the inoculum was adjusted to obtain a concentration of 1.67×10^8 spores mL^−1 of physiological saline. […] On day 0, animals were infected with the spore suspension (30 μL intra-nasally).
Test substances were administered intra-nasally (35 μL of a suspension (0.0032-10.0 mg/mL of drug substance in physiological saline) once daily, on days 1, 2 and 3 only (thereby representing a therapeutic treatment regimen). For extended prophylactic treatment, test compounds (35 μL of a suspension of 0.0032 or 0.016 mg/mL in physiological saline) were administered intra-nasally once daily for seven days. One group was dosed 30 min before infection on day 0 but not subsequently, while a second group was further dosed on days 1, 2 and 3 after infection. The effects of these treatment paradigms were compared with those obtained when treatment was restricted in other groups to either one day or 30 min before inoculation and then on days 1, 2 and 3 post infection in both cases. In a final group, dosing was limited still further with animals dosed twice, one day and 30 min before infection only.
Animal body weights were monitored daily and at 6 hr after the last dose of drug was administered on day 3, the animals were anesthetised, the tracheas cannulated and BALF blood and lung tissue were collected. The levels of IL-6 and TNFα in serum were determined using Quantikine® mouse IL-6 or TNF-α ELISA kit (R&D systems, Inc., Minneapolis, Minn., USA) respectively. Aspergillus GM in serum was determination using Platelia GM-EIA kits (Bio-Rad Laboratories, Redmond, Wash., USA). Cut-off index (COI) was calculated by the formula: Cut-off index=OD in sample/OD in cut-off control provided in kit. For tissue fungal load assays, 100 mg of lung tissue was removed aseptically and homogenized in 0.2 mL of 0.1% agar in sterile distilled water. Serially diluted lung homogenates were plated on Malt agar plates (50 μL/plate), and incubated at 24±1° C. for 72 to 96 h. The colonies of A. fumigatus on each plate were counted and the fungal titre presented herein as CFUs per gram of lung tissue.

[3] = tested on: BEAS2B cells; experiment: Cell viability: resazurin assay; format: cell-based; details: at concentrations indicated in Table 4
Experimental: BEAS2B cells were seeded in 384-well plates (100 μL; 3000/well/; BD Falcon, Catalogue No 353962) in RPMI-LHC8 (RPMI-1640 and LHC8 media combined in equal proportions) one day before experimentation. For cell-free control wells, RPMI-LHC8 (100 μL) was added. Test compounds (0.5 μL of a DMSO solution) were added to give a final DMSO concentration of 0.5% using an Integra VIAFLO 96 (Integra, Zizers, Switzerland). BEAS2B cells were incubated with each test compound for 1 day (37° C./5% CO2 in RPMI-LHC8). After addition of resazurin stock solution (5 μL, 0.04%) the plates were incubated for a further 4 hr (37° C./5% CO2). The fluorescence of each well at 545 nm (excitation) and 590 nm (emission) was determined using a multi-scanner (Clariostar: BMG Labtech). The percentage loss of cell viability was calculated for each well relative to vehicle (0.5% DMSO) treatment. Where appropriate, a CC50 value was calculated from the concentration-response curve generated from the concentration-response curve for each test compound.

Cc1cc(N2CCN(c3ccc(C(=O)N[C@H]4CCCC[C@@H]4O)cc3)CC2)ccc1OC[C@@H]1CO[C@@](Cn2cncn2)(c2ccc(F)cc2F)C1 [Compound (Ia), 4-(4-(4-(((3R,5R)-5-((1H-1,2,4-triazol-1-yl)methyl)-5-(2,4-difluorophenyl)tetrahydrofuran-3-yl)methoxy)-3-methylphenyl)piperazin-1-yl)-N-((1S,2S)-2-hydroxycyclohexyl) benzamide]
MIC50 ([1]; 50% inhibition by visual inspection (CLSI)): 0.016 µg/mL (≈ 0.0233 µM)
MIC ([1]; 100% inhibition by visual inspection (CLSI), read-out: MIC100): 0.016 µg/mL (≈ 0.0233 µM)
TNFα in serum, % Inhibition ([2]; Drug Conc 3.2 μg/mL): 20%
Conc of Biomarkers, TNFα in serum ([2]; Drug Conc 3.2 μg/mL): 28.1 ± 13.8 pg/mL
TNFα in serum, % Inhibition ([2]; Drug Conc 16 μg/mL): 38%
Conc of Biomarkers, TNFα in serum ([2]; Drug Conc 16 μg/mL): 21.8 ± 14.6 pg/mL
TNFα in serum, % Inhibition ([2]; Drug Conc 80 μg/mL): 87%
Conc of Biomarkers, TNFα in serum ([2]; Drug Conc 80 μg/mL): 4.7 ± 1.0 pg/mL
ID50 Values for biomarkers indicated, TNFα ([2]; serum, title: Therapeutic Treatment): 27 µg/mL
effect on the viability of BEAS2B bronchial epithelial cells [3]: no or little effect

From US10513511B2, “Aqueous suspension formulation comprising 4-(4-(4-(((3R,5R)-5-((1H-1,2,4-triazol-1-yl)methyl)-5-(2,4-difluoro-phenyl)tetrahydrofuran-3-yl)methoxy)-3-methylphenyl) or a pharmaceutically acceptable salt thereof” (PULMOCIDE LIMITED, priority 2015, dated 2019)
